Columns and labels:
[1] = system: detrusor muscle; assay: Test Example 1: relaxation of guinea pig bladder strips contracted with 50 mM KCl; type: cell-based, guinea pig (male albino Hartley); details: Cavia porcellus; contraction induced by 50 mM KCl; concentration decreasing detrusor contraction by 50%
Source text: (§1) The activity of Compound (I) as a smooth muscle relaxant which is useful as a therapeutic agent for urinary incontinence can be observed, for example, using the following tests. In the following Test Examples 1 and 2, "IC50 " means the concentration of a test compound which induces the decrease in the contraction of detrusor muscle by 50%.
(§2) Male albino Hartley guinea pigs (350-550 g) were used as test animals. Each animal was exsanguinated to death under pentobarbital sodium anesthesia. The lower abdominal cavity was opened and its bladder was positioned. The connective tissue and the fat tissue around the bladder were removed, and the bladder was cleaned. After two pelvic nerves on the surface of the abdominal side of the bladder were dissected, the bladder was taken out on the entrance of ureter. The bladder was washed with a Krebs-Henseleit buffer [composition (mM): NaCl 118, KCl 4.7, MgSO4 1.2, KH2 PO4 1.2, CaCl2 2.5, NaHCO3 25, and D-glucose 11.1], and then put on a gauze patch soaked in the buffer in a Petri dish. The dome and the trigone of the bladder were dissected and discarded. The back of the bladder was cut vertically in the middle with scissors, and the bladder was put flat on the gauze patch. The dome tip and the side of the trigone of the bladder were dissected and discarded, and the mucosa of the bladder was removed. The back of the bladder was cut vertically to get 6 strips which are ca. 2.0 mm wide and ca. 10 mm long.
(§3) One end of each strip was fixed on a plastic supporter rod, and the other end was fixed on a clip connected to a suture thread. The supporter was fixed in 20 ml of an organ bath and the suture thread connected to the clip was fixed on a force-displacement transducer (NIHON KODEN TB-611T). The tissue was suspended in a Krebs-Henseleit buffer, and the bath solution was warmed to 37° C. and bubbled with a gas mixture of 5% CO2 and 95% O2. The pH of the solution was adjusted to about 7.4. The transducer was connected to a polygraph (NIHON KODEN AP-621G), and the change of tension was recorded on a recorder (YOKOGAWA type 3066). The polygraph was graduated by 0.5 g/cm.
After the tissue was incubated in the buffer for 15 minutes without preloading, tension was added thereto for about one hour. The preloading tension added was 1.5 g and it was relaxed to about 1 g. The tissue was washed at intervals of 15 minutes and the tension was adjusted to 1.5 g just before washing. The tension of the tissue was adjusted to be a steady state at 1 g. After this equilibrium time, 50 mM KCl (the whole content in the bath) was added, and the tissue was washed 10 minutes later. KCl was added to the tissue at intervals of 30 minutes, followed by washing 10 minutes later, and KCl was applied repeatedly until the developed tension induced by KCl becomes constant. When the tissue was confirmed to contract constantly by the application of KCl and relax to the steady state after washing, 50 mM KCl was applied again. After the tissue reached the steady state and the base line was obtained, a test compound was applied by the cumulative method (half-logarithmic incremence). The contact time at each concentration was 30 minutes. The activity of the compound was expressed as the maximum relaxation rate (%) of the tension induced by the agonist.

[2] = system: detrusor muscle; assay: Test Example 2: relaxation of guinea pig bladder strips, rhythmical contraction induced by 15 mM KCl; type: cell-based, guinea pig (male albino Hartley); details: Cavia porcellus, concentration decreasing detrusor contraction by 50%
Source text: as §1, §2, §3
The effect of a smooth muscle relaxant varies with the concentration of KCl based on the difference of an action mechanism. In the following Test Example, KCl was used at a concentration different from that in Test Example 1.
A sample of the excised bladder was prepared in the same manner as in Test Example 1, and the tension of the preparation was measured. After the tension of the tissue was adjusted to be a steady state at 1 g, 15 mM KCl was applied. After the rhythmical contraction was confirmed to appear by KCl, the tissue was washed. Then, 15 mM KCl was applied again. After the rhythmical contraction took place constantly and the tissue reached the steady state, a test compound was applied by the cumulative method (half-logarithmic incremence). The contact time at each concentration was 30 minutes. The activity of the compound was expressed as the maximum relaxation rate (%) of the tension induced by the agonist.

[3] = system: bladder; assay: Test Example 4: micturition contraction interval in rats under partial restraint, oral; type: in vivo, rat (male SD strain); details: Rattus norvegicus, 1.0 mg/kg oral, pre-administration = 100, second part of Table 4
Source text: As a control compound, cromakalim was used.

For `C[C@](O)(C(=O)Nc1ccc2c(c1)OCc1occc1C2=O)C(F)(F)F` [Compound 37, (S)-7-(3,3,3-Trifluoro-2-hydroxy-2-methylpropanoylamino)-4,10-dihydrofuro[2,3-c][1]benzoxepin-4-one], the IC50 [1] was 4.3 µM, the IC50 [2] was 0.2 µM and the response vs control in vivo at 1 mg/kg ([3]; 1 hr after administration) was 114 ± 10.7%. For the same compound, the response vs control in vivo at 1 mg/kg ([3]; 2 hr after administration) was 128 ± 6.5%, the response vs control in vivo at 1 mg/kg ([3]; 3 hr after administration) was 126 ± 6.5% and the response vs control in vivo at 1 mg/kg ([3]; 4 hr after administration) was 140 ± 10.2%. It also gave a response vs control in vivo at 1 mg/kg ([3]; 5 hr after administration) of 144 ± 11.1%.

For `CC(O)(C(=O)Nc1ccc2c(c1)C(=O)c1sccc1CO2)C(F)(F)F` (stereo not shown) [Compound 16, 8-(3,3,3-Trifluoro-2-hydroxy-2-methylpropanoylamino)-4,10-dihydrothieno[3,2-c][1]benzoxepin-10-one], the IC50 [1] was > 10 µM, the IC50 [2] was 1.4 µM and the response vs control in vivo at 1 mg/kg ([3]; 1 hr after administration) was 118 ± 7.9%. The response vs control in vivo at 1 mg/kg ([3]; 2 hr after administration) was 132 ± 14.2%, the response vs control in vivo at 1 mg/kg ([3]; 3 hr after administration) was 119 ± 9.8% and the response vs control in vivo at 1 mg/kg ([3]; 4 hr after administration) was 127 ± 7.1%. It also gave a response vs control in vivo at 1 mg/kg ([3]; 5 hr after administration) of 137 ± 12.6%.

For `CC(O)(C(=O)Nc1ccc2c(c1)C(=O)c1ccccc1CC2)C(F)(F)F` (stereo not shown) [Compound 53, 3-(3,3,3-Trifluoro-2-hydroxy-2-methylpropanoylamino)-10,11-dihydro-5H-dibenzo[a,d]cyclohepten-5-one], the IC50 [1] was > 10 µM, the IC50 [2] was 2.9 µM and the response vs control in vivo at 1 mg/kg ([3]; 1 hr after administration) was 108 ± 9.7%. It also gave a response vs control in vivo at 1 mg/kg ([3]; 2 hr after administration) of 134 ± 12%, a response vs control in vivo at 1 mg/kg ([3]; 3 hr after administration) of 148 ± 14% and a response vs control in vivo at 1 mg/kg ([3]; 4 hr after administration) of 155 ± 11.9%. The response vs control in vivo at 1 mg/kg ([3]; 5 hr after administration) was 168 ± 11.8%.

Work on `CC(O)(C(=O)Nc1cccc2c1C(=O)c1cccc(F)c1CO2)C(F)(F)F` (stereo not shown) [Compound 20, 7-Fluoro-1-(3,3,3-trifluoro-2-hydroxy-2-methylpropanoylamino)-6,11-dihydrodibenz[b,e]oxepin-11-one] yielded an IC50 [1] of 2.3 µM, an IC50 [2] of 6 µM and a response vs control in vivo at 1 mg/kg ([3]; 1 hr after administration) of 121 ± 3.9%. The response vs control in vivo at 1 mg/kg ([3]; 2 hr after administration) was 147 ± 9.9%, the response vs control in vivo at 1 mg/kg ([3]; 3 hr after administration) was 148 ± 20% and the response vs control in vivo at 1 mg/kg ([3]; 4 hr after administration) was 156 ± 19.6%. The response vs control in vivo at 1 mg/kg ([3]; 5 hr after administration) was 142 ± 15.8%.

Compound `CC(O)(C(=O)Nc1cccc2c1C(=O)c1ccccc1-2)C(F)(F)F` (stereo not shown) [Compound 4, 1-(3,3,3-Trifluoro-2-hydroxy-2-methylpropanoylamino)fluoren-9-one] has an IC50 [1] of 2.6 µM and an IC50 [2] of 8.4 µM.

In the case of `CC(O)(C(=O)Nc1cccc2c1C(=O)c1ccoc1CO2)C(F)(F)F` (stereo not shown) [Compound 9, 5-(3,3,3-Trifluoro-2-hydroxy-2-methylpropanoylamino)-4,10-dihydrofuro[2,3-c][1]benzoxepin-4-one], the IC50 [1] is reported as 4.3 µM, the IC50 [2] is reported as 4.6 µM and the response vs control in vivo at 1 mg/kg ([3]; 1 hr after administration) is reported as 123 ± 6.8%. The response vs control in vivo at 1 mg/kg ([3]; 2 hr after administration) was 131 ± 9.3%, the response vs control in vivo at 1 mg/kg ([3]; 3 hr after administration) was 133 ± 9.1% and the response vs control in vivo at 1 mg/kg ([3]; 4 hr after administration) was 145 ± 10%. For the same compound, the response vs control in vivo at 1 mg/kg ([3]; 5 hr after administration) was 155 ± 12.2%.

For `CC(O)(C(=O)Nc1cccc2ccc3ccccc3c(=O)c12)C(F)(F)F` (stereo not shown) [Compound 60, 4-(3,3,3-Trifluoro-2-hydroxy-2-methylpropanoylamino)-5H-dibenzo[a,d]cyclohepten-5-one], the IC50 [1] was > 10 µM and the IC50 [2] was 4.1 µM.

For `CC(O)(C(=O)Nc1ccc2c(c1)CCc1ccccc1C2=O)C(F)(F)F` (stereo not shown) [Compound 54, 2-(3,3,3-Trifluoro-2-hydroxy-2-methylpropanoylamino)-10,11-dihydro-5H-dibenzo[a,d]cyclohepten-5-one], the IC50 [1] was 3.8 µM and the IC50 [2] was > 10 µM.

`CC(O)(C(=O)Nc1ccc2c(c1)OCc1ccsc1C2=O)C(F)(F)F` (stereo not shown) [Compound 8, 7-(3,3,3-Trifluoro-2-hydroxy-2-methylpropanoylamino)-4,10-dihydrothieno[3,2-c][1]benzoxepin-10-one] gave an IC50 [1] of 5.2 µM, an IC50 [2] of 0.5 µM and a response vs control in vivo at 1 mg/kg ([3]; 1 hr after administration) of 130 ± 9.3%. It also gave a response vs control in vivo at 1 mg/kg ([3]; 2 hr after administration) of 142 ± 12.6%, a response vs control in vivo at 1 mg/kg ([3]; 3 hr after administration) of 144 ± 8.8% and a response vs control in vivo at 1 mg/kg ([3]; 4 hr after administration) of 162 ± 14.6%. The response vs control in vivo at 1 mg/kg ([3]; 5 hr after administration) was 189 ± 19.6%.

`C[C@@](O)(C(=O)Nc1cccc2c1C(=O)c1ccoc1CO2)C(F)(F)F` [Compound 36, (R)-5-(3,3,3-Trifluoro-2-hydroxy-2-methylpropanoylamino)-4,10-dihydrofuro[2,3-c][1]benzoxepin-4-one] was tested, and the IC50 [1] was 8.3 µM and the IC50 [2] was 1.3 µM.

`CC(O)(C(=O)Nc1ccc2c(c1)OCc1occc1C2=O)C(F)(F)F` (stereo not shown) [Compound 10, 7-(3,3,3-Trifluoro-2-hydroxy-2-methylpropanoylamino)-4,10-dihydrofuro[2,3-c][1]benzoxepin-4-one] was tested, and the IC50 [1] was 10 µM, the IC50 [2] was 1.9 µM and the response vs control in vivo at 1 mg/kg ([3]; 1 hr after administration) was 132 ± 11.2%. The response vs control in vivo at 1 mg/kg ([3]; 2 hr after administration) was 142 ± 17.5%, the response vs control in vivo at 1 mg/kg ([3]; 3 hr after administration) was 158 ± 22.3% and the response vs control in vivo at 1 mg/kg ([3]; 4 hr after administration) was 174 ± 29.9%. For the same compound, the response vs control in vivo at 1 mg/kg ([3]; 5 hr after administration) was 183 ± 42.7%.

`CC(O)(C(=O)Nc1cccc2c1C(=O)c1ccccc1CS2)C(F)(F)F` (stereo not shown) [Compound 40, 1-(3,3,3-Trifluoro-2-hydroxy-2-methylpropanoylamino)-6,11-dihydrodibenzo[b,e]thiepin-11-one] gave an IC50 [1] of 1.5 µM and an IC50 [2] of 3.5 µM.

With `CC(O)(C(=O)Nc1cccc2ccc3ccsc3c(=O)c12)C(F)(F)F` (stereo not shown) [Compound 63, 9-(3,3,3-Trifluoro-2-hydroxy-2-methylpropanoylamino)-10H-benzo[5,6]cyclohepta[1,2-b]thiophen-10-one] the IC50 [1] was 3.3 µM and the IC50 [2] was > 10 µM.

With `CC(O)(C(=O)Nc1cc2c(cc1Cl)-c1ccccc1C2=O)C(F)(F)F` (stereo not shown) [Compound 11, 3-Chloro-2-(3,3,3-trifluoro-2-hydroxy-2-methyl-propanoylamino)fluoren-9-one] the IC50 [1] was 2 µM and the IC50 [2] was 2.2 µM.

`CC(O)(C(=O)Nc1ccc2ccc3ccccc3c(=O)c2c1)C(F)(F)F` (stereo not shown) [Compound 61, 3-(3,3,3-Trifluoro-2-hydroxy-2-methylpropanoylamino)-5H-dibenzo[a,d]cyclohepten-5-one] was tested, and the IC50 [1] was 3.2 µM and the IC50 [2] was 2.3 µM.

Compound `CC(O)(C(=O)Nc1cccc2ccc3ccoc3c(=O)c12)C(F)(F)F` (stereo not shown) [Compound 67, 9-(3,3,3-Trifluoro-2-hydroxy-2-methylpropanoylamino)-10H-benzo[5,6]cyclohepta[1,2-b]furan-10-one] has an IC50 [1] of 6.9 µM and an IC50 [2] of 3.8 µM.

Work on `CC(O)(C(=O)Nc1cc2c(cc1Br)-c1ccccc1C2=O)C(F)(F)F` (stereo not shown) [Compound 12, 3-Bromo-2-(3,3,3-trifluoro-2-hydroxy-2-methylpropanoylamino)fluoren-9-one] yielded an IC50 [1] of 3.8 µM and an IC50 [2] of 3.2 µM.

In the case of `CC(O)(C(=O)Nc1cccc2c1-c1ccccc1C2=O)C(F)(F)F` (stereo not shown) [Compound 14, 4-(3,3,3-Trifluoro-2-hydroxy-2-methylpropanoylamino)fluoren-9-one], the IC50 [1] is reported as 5.7 µM and the IC50 [2] is reported as 2.3 µM.

For `CC(O)(C(=O)Nc1ccc2c(c1)CCc1ncccc1C2=O)C(F)(F)F` (stereo not shown) [Compound 59, 8-(3,3,3-Trifluoro-2-hydroxy-2-methylpropanoylamino)-10,11-dihydro-5H-benzo[4,5]cyclohepta[1,2-b]pyridin-5-one], the IC50 [1] was > 10 µM and the IC50 [2] was 5 µM.
